# Measured values as given in publication PMC12042115 (mLife, 2025).
# Read-outs that look alike come from different tables or passages of the source.
# Tested on: wild‐type BCG cells
# Format: cell-based, M. bovis BCG
compound,measurement,setting,value
O=C(Oc1ccc(Cl)cc1)c1ccc(N2CCOCC2)c([N+](=O)[O-])c1 [GDI‐5755],ClpB upregulation,2‐day treated cells,1.56 fold
same,detected proteome downregulated,"2‐day treatment, 2×MIC",~ 37.9%
same,ClpB upregulation,3‐day treated cells,1.47 fold
same,Mean_Ratio (GDI5755_3d vs DMSO_3d),3 d,0.7
same,number of proteins accumulated (upregulated),Day 2,216 proteins
same,proteome remaining downregulated into the third day,Day 2 and Day 3,29.1%
same,number of proteins accumulated (upregulated),Day 3,188 proteins
same,EthA upregulation,GDI‐5755‐treated cells,> 1.4 fold
same,Mean_Ratio GDI5755_3d: DMSO_3d,"Table S5, BCG_0001 Chromosomal replication initiator protein DnaA",0.8
same,Mean_Ratio GDI5755_3d: DMSO_3d,"Table S5, BCG_0066 Fatty-acid-coa ligase fadD34",0.7
same,Mean_Ratio GDI5755_3d: DMSO_3d,"Table S5, BCG_0101c Serine hydroxy methyltransferase",0.8
same,Mean_Ratio GDI5755_3d: DMSO_3d,"Table S5, BCG_0207 MCE-family protein mce1B",0.7
same,Mean_Ratio GDI5755_3d: DMSO_3d,"Table S5, BCG_0208 MCE-family protein mce1C",0.8
same,Mean_Ratio GDI5755_3d: DMSO_3d,"Table S5, BCG_0209 MCE-family protein mce1D",0.7
same,Mean_Ratio GDI5755_3d: DMSO_3d,"Table S5, BCG_0210 MCE-family lipoprotein lprK",0.7
same,Mean_Ratio GDI5755_3d: DMSO_3d,"Table S5, BCG_0211 MCE-family protein mce1F",0.7
same,Mean_Ratio GDI5755_3d: DMSO_3d,"Table S5, BCG_0442 Probable fatty-acid-CoA ligase fadD30",0.7
same,Mean_Ratio GDI5755_3d: DMSO_3d,"Table S5, BCG_0495c Enoyl-CoA hydratase echA2",0.5
same,Mean_Ratio GDI5755_3d: DMSO_3d,"Table S5, BCG_0546c cmaA2",0.7
same,Mean_Ratio GDI5755_3d: DMSO_3d,"Table S5, BCG_0547c UPF0336 protein",0.8
same,Mean_Ratio GDI5755_3d: DMSO_3d,"Table S5, BCG_0591c Possible oxidoreductase",0.8
same,Mean_Ratio GDI5755_3d: DMSO_3d,"Table S5, BCG_0692c Methoxy mycolic acid synthase 3 mmaA3",0.6
same,Mean_Ratio GDI5755_3d: DMSO_3d,"Table S5, BCG_0693c Methoxy mycolic acid synthase 2 mmaA2",0.7
same,Mean_Ratio GDI5755_3d: DMSO_3d,"Table S5, BCG_1048 UTP--glucose-1-phosphate uridylyltransferase",0.7
same,Mean_Ratio GDI5755_3d: DMSO_3d,"Table S5, BCG_1203c Probable enoyl-CoA hydratase echA11",0.7
same,Mean_Ratio GDI5755_3d: DMSO_3d,"Table S5, BCG_1311c Uncharacterized protein",0.8
same,Mean_Ratio GDI5755_3d: DMSO_3d,"Table S5, BCG_1534 Macrolide-transport ATP-binding protein ABC transporter",0.8
same,Mean_Ratio GDI5755_3d: DMSO_3d,"Table S5, BCG_1579c Mycocerosic acid synthase-like polyketide synthase",0.7
same,Mean_Ratio GDI5755_3d: DMSO_3d,"Table S5, BCG_1619c Possible inv protein",0.7
same,Mean_Ratio GDI5755_3d: DMSO_3d,"Table S5, BCG_1699 Possible chalcone synthase pks10",0.8
same,Mean_Ratio GDI5755_3d: DMSO_3d,"Table S5, BCG_1896 Alanine and proline-rich secreted protein Apa",0.6
same,Mean_Ratio GDI5755_3d: DMSO_3d,"Table S5, BCG_1922c Chorismate mutase",0.7
same,Mean_Ratio GDI5755_3d: DMSO_3d,"Table S5, BCG_1923c Mycolyltransferase Ag85B",0.7
same,Mean_Ratio GDI5755_3d: DMSO_3d,"Table S5, BCG_1962 Probable lipase lipD",0.6
same,Mean_Ratio GDI5755_3d: DMSO_3d,"Table S5, BCG_2254 ER-bound oxygenase mpaB",0.8
same,Mean_Ratio GDI5755_3d: DMSO_3d,"Table S5, BCG_2260 Malonyl CoA-acyl carrier protein transacylase fabD",0.7
same,Mean_Ratio GDI5755_3d: DMSO_3d,"Table S5, BCG_2310 Probable aminotransferase",0.8
same,Mean_Ratio GDI5755_3d: DMSO_3d,"Table S5, BCG_2317 Cutinase",0.7
same,Mean_Ratio GDI5755_3d: DMSO_3d,"Table S5, BCG_2546c Putative peptidoglycan hydrolase",0.8
same,Mean_Ratio GDI5755_3d: DMSO_3d,"Table S5, BCG_2550 ERCC4 domain-containing protein",0.7
same,Mean_Ratio GDI5755_3d: DMSO_3d,"Table S5, BCG_2886c Possible penicillin-binding lipoprotein",0.6
same,Mean_Ratio GDI5755_3d: DMSO_3d,"Table S5, BCG_2977 Methyltransferase FkbM domain-containing protein",0.7
same,Mean_Ratio GDI5755_3d: DMSO_3d,"Table S5, BCG_3009c 3-isopropylmalate dehydratase large subunit",0.6
same,Mean_Ratio GDI5755_3d: DMSO_3d,"Table S5, BCG_3111 alcohol dehydrogenase adhD",0.8
same,Mean_Ratio GDI5755_3d: DMSO_3d,"Table S5, BCG_3296 LytR family transcriptional regulator",0.8
same,Mean_Ratio GDI5755_3d: DMSO_3d,"Table S5, BCG_3375 Possible acid phosphatase",0.8
same,Mean_Ratio GDI5755_3d: DMSO_3d,"Table S5, BCG_3658 Probable conserved lipoprotein lpqF",0.8
same,Mean_Ratio GDI5755_3d: DMSO_3d,"Table S5, BCG_3731c Possible chalcone synthase pks11",0.7
same,Mean_Ratio GDI5755_3d: DMSO_3d,"Table S5, BCG_3772 Lipid II isoglutaminyl synthase subunit MurT",0.7
same,Mean_Ratio GDI5755_3d: DMSO_3d,"Table S5, BCG_3866c Mycolyltransferase Ag85A",0.8
same,Mean_Ratio GDI5755_3d: DMSO_3d,"Table S5, BCG_3882c Trehalose-2-sulfate acyltransferase PapA2",0.8
same,Mean_Ratio GDI5755_3d: DMSO_3d,"Table S6, BCG_0130 decarboxylase",1.5
same,Mean_Ratio GDI5755_3d: DMSO_3d,"Table S6, BCG_0289c Heat stress-induced ribosome-binding protein A, acr2",3.9
same,Mean_Ratio GDI5755_3d: DMSO_3d,"Table S6, BCG_0347c Acetoacetate decarboxylase",1.3
same,Mean_Ratio GDI5755_3d: DMSO_3d,"Table S6, BCG_0389 Chaperone protein DnaK",1.5
same,Mean_Ratio GDI5755_3d: DMSO_3d,"Table S6, BCG_0390 Protein GrpE/HSP-70 cofactor",1.4
same,Mean_Ratio GDI5755_3d: DMSO_3d,"Table S6, BCG_0391 Chaperone protein DnaJ",1.5
same,Mean_Ratio GDI5755_3d: DMSO_3d,"Table S6, BCG_0422c Chaperone protein ClpB",1.5
same,Mean_Ratio GDI5755_3d: DMSO_3d,"Table S6, BCG_0463c Uncharacterized protein",1.4
same,Mean_Ratio GDI5755_3d: DMSO_3d,"Table S6, BCG_0726c Possible conserved membrane protein mmpS5",1.4
same,Mean_Ratio GDI5755_3d: DMSO_3d,"Table S6, BCG_0774 Possible protease IV sppA (Endopeptidase IV)",1.4
same,Mean_Ratio GDI5755_3d: DMSO_3d,"Table S6, BCG_0909 Cyclase",1.3
same,Mean_Ratio GDI5755_3d: DMSO_3d,"Table S6, BCG_0993 Bifunctional 2-hydroxyhepta-2,4-diene-1,7-dioate isomerase",1.3
same,Mean_Ratio GDI5755_3d: DMSO_3d,"Table S6, BCG_1028c Probable acetyl-/propionyl-coa carboxylase, accD2",1.4
same,Mean_Ratio GDI5755_3d: DMSO_3d,"Table S6, BCG_1037 Two-component sensor kinase MprB",1.2
